# Measurements reported in US9643963B2, “Antiparasitic compounds” (Avista Pharma Solutions, Inc., priority 2013, dated 2017).
# System: Dirofilaria immitis
# Experiment: Dirofilaria immitis microfilariae motility assay or L4 stage assay (the source does not say which gave the EC50 values)
# Assay type: cell-based
# Conditions: 72 h, read-out: EC50 values
row,Structure (SMILES),EC50 [µM]
1,"O=C(Nc1nc(-c2ccccn2)ns1)c1ccc(I)cc1 [Compound 67, 4-iodo-N-[3-(2-pyridyl)-1,2,4-thiadiazol-5-yl]benzamide]",< 5
2,"CC(C)(C)OC(=O)N1CCN(C(=O)c2ccc(C(=O)Nc3nc(-c4ccccn4)ns3)cc2)CC1 [Compound 70, tert-butyl 4-[4-[[3-(2-pyridyl)-1,2,4-thiadiazol-5-yl]carbamoyl]benzoyl]piperazine-1-carboxylate]",< 5
3,"O=C(Nc1nc(-c2ccccn2)ns1)c1ccc(C(=O)N2CCCCC2)cc1 [Compound 72, 4-(piperidine-1-carbonyl)-N-[3-(2-pyridyl)-1,2,4-thiadiazol-5-yl]benzamide]",< 5
4,"O=C(Nc1nc(-c2ccccn2)ns1)c1ccc(NC2CCNCC2)cc1 [Compound 79, 4-(4-piperidylamino)-N-[3-(2-pyridyl)-1,2,4-thiadiazol-5-yl]benzamide]",< 5
5,"O=C(Nc1nc(-c2ccccn2)ns1)c1ccc(Cc2ccccc2)cc1 [Compound 89, 4-benzyl-N-[3-(2-pyridyl)-1,2,4-thiadiazol-5-yl]benzamide]",< 5
6,"O=C(Nc1nc(-c2cccc(-c3cccnc3)n2)ns1)c1ccc(C(F)(F)F)cc1 [Compound 116, N-[3-[6-(3-pyridyl)-2-pyridyl]-1,2,4-thiadiazol-5-yl]-4-(trifluoromethyl)benzamide]",< 5
7,"O=C(Nc1nc(-c2ccccn2)ns1)c1ccc(NCc2ccccc2)cc1 [Compound 118, 4-(benzylamino)-N-[3-(2-pyridyl)-1,2,4-thiadiazol-5-yl]benzamide]",< 5
8,"O=C(Nc1nc(-c2ccccn2)ns1)c1cccc(Nc2ccccc2)c1 [Compound 119, 3-anilino-N-[3-(2-pyridyl)-1,2,4-thiadiazol-5-yl]benzamide]",< 5
9,"CC(C)(C)COc1ccnc(-c2nsc(NC(=O)c3ccc(C(F)(F)F)cc3)n2)c1 [Compound 143, N-[3-[4-(2,2-dimethylpropoxy)-2-pyridyl]-1,2,4-thiadiazol-5-yl]-4-(trifluoromethyl)benzamide]",< 5
